Where two headings read alike, the source gives them in different places. No end group written: not given here.
Key:
DPP IV = molecular target: T1, DPP IV (Sus scrofa, UniProt P22411); experiment: Degradation of GIP and analogues by DPP IV (HPLC); assay type: in vitro ADME; conditions: for resistance to in vitro degradation with DPP IV relative to native GIP: Example 3, summary of Table 1; for % Intact peptide remaining after time (h) / remaining at 2 h, 1 mmol/l / remaining at 4 h, 1 mmol/l / remaining at 8 h, 1 mmol/l / remaining at 24 h, 1 mmol/l: incubation with DPP IV; for % Intact peptide remaining after time (h): 0 h; for remaining at 2 h, 1 mmol/l / remaining at 4 h, 1 mmol/l / remaining at 8 h, 1 mmol/l / remaining at 24 h, 1 mmol/l: isolated enzyme dpp iv, pH 7.8, read-out: % Intact peptide remaining after time (h)
T1 construct: purchased Sigma (Poole, Dorset, UK)
Method: Degradation of GIP and Tyr^1-glucitol GIP by DPP IV. HPLC-purified GIP or Tyr^1-glucitol GIP were incubated at 37° C. with DPP-IV (5 mU) for various time periods in a reaction mixture made up to 500 μl with 50 mmol/l triethanolamine-HCl, pH 7.8 (final peptide concentration 1 mmol/l). Enzymatic reactions were terminated after 0, 2, 4 and 12 hours by addition of 5 μl of 10% (v/v) TFA/water. Samples were made up to a final volume of 1.0 ml with 0.12% (v/v) TFA and stored at −20° C. prior to HPLC analysis.
(§1) HPLC analysis of degraded GIP and Tyr^1-glucitol GIP. […] Using 0.1% (v/v) TFA in 70% acetonitrile/H20, the concentration of acetonitrile in the eluting solvent was raised from 0% to 31.5% over 15 min, to 38.5% over 30 minutes and from 38.5% to 70% over 5 minutes, using linear gradients. The absorbance was monitored at 206 nm and peak areas evaluated using a model 2221 LKB integrator. Samples recovered manually were concentrated using a Speed-Vac concentrator.
(§2) Electrospray ionization-mass spectrometry (ESI-MS) was carried out as described in Example 2. Degradation of GIP and novel GIP analogues by DPP IV and human plasma was carried out as described in Example 2.

[1] = Degradation of GIP and analogues by human plasma (HPLC); assay type: in vitro ADME; conditions: for % Intact peptide remaining after incubations with human plasma: 0 h; for effect of DPA on plasma degradation of the peptide: 24 hours in the presence of DPA; for remaining at 2 h, 20 µg/ml / remaining at 4 h, 20 µg/ml / remaining at 8 h, 20 µg/ml / remaining at 24 h, 20 µg/ml: human, plasma, read-out: % Intact peptide remaining after incubations with human plasma; for remaining at 2 h, 20 µg/ml: pH 7.8, 2 h; for remaining at 4 h, 20 µg/ml: pH 7.8, 4 h; for remaining at 8 h, 20 µg/ml: pH 7.8, 8 h
Method: Degradation of GIP and Tyr^1-glucitol GIP by human plasma. […] […] The reactions were terminated by addition of 5 μl of TFA and the final volume adjusted to 1.0 ml using 0.1% v/v TFA/water. Samples were centrifuged (13,000 g, 5 minutes) and the supernatant applied to a C-18 Sep-Pak cartridge (Millipore-Waters) which was previously primed and washed with 0.1% (v/v) TFA/water. […] The volume was adjusted to 1.0 ml with 0.12% (v/v) TFA/water prior to HPLC purification.
as §1, §2

BRIN-BD11 cells = experiment: Acute tests for insulin secretion from BRIN-BD11 cells; assay type: cell-based; conditions: 5.6 and 16.7 mM glucose, 10^-13 to 10^-8 M peptide
Method: Culture of insulin secreting cells. BRIN-BD11 cells were cultured in sterile tissue culture flasks (Corning, Glass Works, UK) using RPMI-1640 tissue culture medium containing 10% (v/v) foetal calf serum, 1% (v/v) antibiotics (100 U/ml penicillin, 0.1 mg/ml streptomycin) and 11.1 mM glucose. The cells were maintained at 37° C. in an atmosphere of 5% CO2 and 95% air using a LEEC incubator (Laboratory Technical Engineering, Nottingham, UK).
Acute tests for insulin secretion. Before experimentation, the cells were harvested from the surface of the tissue culture flasks with the aid of trypsin/EDTA (Gibco), seeded into 24-multiwell plates (Nunc, Roskilde, Denmark) at a density of 1.5×10^5 cells per well, and allowed to attach overnight at 37° C. Acute tests for insulin release were preceded by 40 minutes pre-incubation at 37° C. in 1.0 ml Krebs Ringer bicarbonate buffer (115 mM NaCl, 4.7 mM KCl, 1.28 mM CaCl2, 1.2 mM KH2PO4, 1.2 mM MgSO4, 10 mM NaHCO3, 5 g/l bovine serum albumin, pH 7.4) supplemented with 1.1 mM glucose. Test incubations were performed (n=12) at two glucose concentrations (5.6 mM and 16.7 mM) with a range of concentrations (10^−13 to 10^−8 M) of GIP or GIP analogues. After 20 minutes incubation, the buffer was removed from each well and aliquots (200 μl) were used for measurement of insulin by radioimmunoassay.

[2] = pH 7.8, 24 hours in the presence of DPA (diprotin A)

T1 sequence (P22411 whole entry): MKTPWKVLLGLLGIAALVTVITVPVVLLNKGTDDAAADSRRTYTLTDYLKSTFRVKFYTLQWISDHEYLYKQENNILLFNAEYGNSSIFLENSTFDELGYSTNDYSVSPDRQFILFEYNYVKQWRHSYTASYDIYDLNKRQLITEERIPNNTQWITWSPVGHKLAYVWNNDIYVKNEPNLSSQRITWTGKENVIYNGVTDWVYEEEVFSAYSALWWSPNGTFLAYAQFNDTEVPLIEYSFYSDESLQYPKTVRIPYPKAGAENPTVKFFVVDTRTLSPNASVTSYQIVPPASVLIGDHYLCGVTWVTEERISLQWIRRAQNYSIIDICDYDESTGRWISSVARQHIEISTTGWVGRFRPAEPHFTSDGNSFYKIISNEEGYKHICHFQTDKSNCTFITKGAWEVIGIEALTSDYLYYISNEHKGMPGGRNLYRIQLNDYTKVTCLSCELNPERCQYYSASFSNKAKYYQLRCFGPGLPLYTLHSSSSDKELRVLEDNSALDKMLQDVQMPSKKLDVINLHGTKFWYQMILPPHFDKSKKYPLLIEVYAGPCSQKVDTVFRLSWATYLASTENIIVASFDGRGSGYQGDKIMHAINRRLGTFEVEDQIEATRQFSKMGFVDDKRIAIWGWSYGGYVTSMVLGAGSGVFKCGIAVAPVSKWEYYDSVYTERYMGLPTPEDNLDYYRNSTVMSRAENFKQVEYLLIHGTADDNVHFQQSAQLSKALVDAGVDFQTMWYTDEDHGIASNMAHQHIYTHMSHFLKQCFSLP

In the case of `CC[C@H](NC(=O)[C@@H](N)Cc1ccc(O)cc1)C(=O)N[C@@H](CCC(=O)O)C(=O)NCC(=O)N[C@H](C(=O)N[C@@H](Cc1ccccc1)C(=O)N[C@H](C(=O)N[C@@H](CO)C(=O)N[C@@H](CC(=O)O)C(=O)N[C@@H](Cc1ccc(O)cc1)C(=O)N[C@@H](CO)C(=O)N[C@H](C(=O)N[C@@H](C)C(=O)N[C@@H](CCSC)C(=O)N[C@@H](CC(=O)O)C(=O)N[C@@H](CCCCN)C(=O)N[C@H](C(=O)N[C@@H](Cc1c[nH]cn1)C(=O)N[C@@H](CCC(N)=O)C(=O)N[C@@H](CCC(N)=O)C(=O)N[C@@H](CC(=O)O)C(=O)N[C@@H](Cc1ccccc1)C(=O)N[C@H](C(=O)N[C@@H](CC(N)=O)C(=O)N[C@@H](Cc1c[nH]c2ccccc12)C(=O)N[C@@H](CC(C)C)C(=O)N[C@@H](CC(C)C)C(=O)N[C@@H](C)C(=O)N[C@@H](CCC(N)=O)C(=O)N[C@@H](CCCCN)C(=O)NCC(=O)N[C@@H](CCCCN)C(=O)N[C@@H](CCCCN)C(=O)N[C@@H](CC(N)=O)C(=O)N[C@@H](CC(=O)O)C(=O)N[C@@H](Cc1c[nH]c2ccccc12)C(=O)N[C@@H](CCCCN)C(=O)N[C@@H](Cc1c[nH]cn1)C(=O)N[C@@H](CC(N)=O)C(=O)N[C@H](C(=O)N[C@H](C(=O)N[C@@H](CCC(N)=O)C(=O)O)[C@@H](C)O)[C@@H](C)CC)C(C)C)[C@@H](C)CC)[C@@H](C)CC)[C@@H](C)CC)[C@@H](C)O` [GIP (Abu^2)], the “resistance to in vitro degradation with DPP IV relative to native GIP” value (“resistance … with DPP IV relative to native GIP” below) (DPP IV) is reported as “more resistant than native GIP”, the “% Intact peptide remaining after time (h)” value (DPP IV) is reported as 100% and the remaining at 2 h, 1 mmol/l (DPP IV) is reported as 38 ± 1%. For the same compound, the remaining at 4 h, 1 mmol/l (DPP IV) was 28 ± 2%, the remaining at 8 h, 1 mmol/l (DPP IV) was 0% and the remaining at 24 h, 1 mmol/l (DPP IV) was 0%. The “% Intact peptide remaining after incubations with human plasma” value [1] was 100%, the “effect of DPA on plasma degradation of the peptide” value [1] was “complete abolition of degradation” and the remaining at 2 h, 20 µg/ml [1] was 38 ± 1%. It also gave a remaining at 4 h, 20 µg/ml [1] of 28 ± 2%, a remaining at 8 h, 20 µg/ml [1] of 0% and a remaining at 24 h, 20 µg/ml ([1]; pH 7.8, 24 h) of 0%. The remaining at 24 h, 20 µg/ml [1, 2] was 100% and the “insulin secretion from BRIN-BD11 cells” value (BRIN-BD11 cells) was “complex pattern of responsiveness dependent on glucose concentration and dose employed”.

In the case of `CC[C@H](C)[C@H](NC(=O)[C@H](CO)NC(=O)[C@H](Cc1ccc(O)cc1)NC(=O)[C@H](CC(=O)O)NC(=O)[C@H](CO)NC(=O)[C@@H](NC(=O)[C@H](Cc1ccccc1)NC(=O)[C@@H](NC(=O)CNC(=O)[C@H](CCC(=O)O)NC(=O)CN(C)C(=O)[C@@H](N)Cc1ccc(O)cc1)[C@@H](C)O)[C@@H](C)CC)C(=O)N[C@@H](C)C(=O)N[C@@H](CCSC)C(=O)N[C@@H](CC(=O)O)C(=O)N[C@@H](CCCCN)C(=O)N[C@H](C(=O)N[C@@H](Cc1c[nH]cn1)C(=O)N[C@@H](CCC(N)=O)C(=O)N[C@@H](CCC(N)=O)C(=O)N[C@@H](CC(=O)O)C(=O)N[C@@H](Cc1ccccc1)C(=O)N[C@H](C(=O)N[C@@H](CC(N)=O)C(=O)N[C@@H](Cc1c[nH]c2ccccc12)C(=O)N[C@@H](CC(C)C)C(=O)N[C@@H](CC(C)C)C(=O)N[C@@H](C)C(=O)N[C@@H](CCC(N)=O)C(=O)N[C@@H](CCCCN)C(=O)NCC(=O)N[C@@H](CCCCN)C(=O)N[C@@H](CCCCN)C(=O)N[C@@H](CC(N)=O)C(=O)N[C@@H](CC(=O)O)C(=O)N[C@@H](Cc1c[nH]c2ccccc12)C(=O)N[C@@H](CCCCN)C(=O)N[C@@H](Cc1c[nH]cn1)C(=O)N[C@@H](CC(N)=O)C(=O)N[C@H](C(=O)N[C@H](C(=O)N[C@@H](CCC(N)=O)C(=O)O)[C@@H](C)O)[C@@H](C)CC)C(C)C)[C@@H](C)CC` [GIP (Sar^2)], the “resistance … with DPP IV relative to native GIP” value (DPP IV) is reported as “less resistant”, the “% Intact peptide remaining after time (h)” value (DPP IV) is reported as 100% and the remaining at 2 h, 1 mmol/l (DPP IV) is reported as 28 ± 2%. It also gave a remaining at 4 h, 1 mmol/l (DPP IV) of 8%, a remaining at 8 h, 1 mmol/l (DPP IV) of 0% and a remaining at 24 h, 1 mmol/l (DPP IV) of 0%. For the same compound, the “% Intact peptide remaining after incubations with human plasma” value [1] was 100%, the “plasma degradation” value ([1]; Example 3, summary of Table 2) was “resistance to plasma degradation” and the remaining at 2 h, 20 µg/ml [1] was 28 ± 2%. For the same compound, the remaining at 4 h, 20 µg/ml [1] was 8%, the remaining at 8 h, 20 µg/ml [1] was 0% and the remaining at 24 h, 20 µg/ml ([1]; pH 7.8, 24 h) was 0%. The remaining at 24 h, 20 µg/ml [1, 2] was 100% and the “insulin secretion from BRIN-BD11 cells” value (BRIN-BD11 cells) was “complex pattern of responsiveness dependent on glucose concentration and dose employed”.

With `CC[C@H](C)[C@H](NC(=O)[C@H](CO)NC(=O)[C@H](Cc1ccc(O)cc1)NC(=O)[C@H](CC(=O)O)NC(=O)[C@H](CO)NC(=O)[C@@H](NC(=O)[C@H](Cc1ccccc1)NC(=O)[C@@H](NC(=O)CNC(=O)[C@H](CCC(=O)O)NC(=O)[C@H](C)NC(=O)[C@H](Cc1ccc(O)cc1)NC(C)=O)[C@@H](C)O)[C@@H](C)CC)C(=O)N[C@@H](C)C(=O)N[C@@H](CCSC)C(=O)N[C@@H](CC(=O)O)C(=O)N[C@@H](CCCCN)C(=O)N[C@H](C(=O)N[C@@H](Cc1c[nH]cn1)C(=O)N[C@@H](CCC(N)=O)C(=O)N[C@@H](CCC(N)=O)C(=O)N[C@@H](CC(=O)O)C(=O)N[C@@H](Cc1ccccc1)C(=O)N[C@H](C(=O)N[C@@H](CC(N)=O)C(=O)N[C@@H](Cc1c[nH]c2ccccc12)C(=O)N[C@@H](CC(C)C)C(=O)N[C@@H](CC(C)C)C(=O)N[C@@H](C)C(=O)N[C@@H](CCC(N)=O)C(=O)N[C@@H](CCCCN)C(=O)NCC(=O)N[C@@H](CCCCN)C(=O)N[C@@H](CCCCN)C(=O)N[C@@H](CC(N)=O)C(=O)N[C@@H](CC(=O)O)C(=O)N[C@@H](Cc1c[nH]c2ccccc12)C(=O)N[C@@H](CCCCN)C(=O)N[C@@H](Cc1c[nH]cn1)C(=O)N[C@@H](CC(N)=O)C(=O)N[C@H](C(=O)N[C@H](C(=O)N[C@@H](CCC(N)=O)C(=O)O)[C@@H](C)O)[C@@H](C)CC)C(C)C)[C@@H](C)CC` [N-Acetyl-GIP] the “resistance … with DPP IV relative to native GIP” value (DPP IV) was “more resistant than native GIP”, the “% Intact peptide remaining after time (h)” value (DPP IV) was 100% and the remaining at 2 h, 1 mmol/l (DPP IV) was 100%. It also gave a remaining at 4 h, 1 mmol/l (DPP IV) of 100% and a remaining at 8 h, 1 mmol/l (DPP IV) of 100%.

For “Ile-Pro-Ile [diprotin A, reference compound]”, the “effect of DPP IV inhibitor on degradation of GIP by plasma” value [1] was “completely inhibited degradation of the peptide by plasma”.

For “YSEGTFISDYSIAMDKIHQQDFVNWLLAQKGKKNDWKHNITQ-OH [GIP (Ser^2)]”, the “resistance … with DPP IV relative to native GIP” value (DPP IV) was “more resistant than native GIP”, the “% Intact peptide remaining after time (h)” value (DPP IV) was 100% and the remaining at 2 h, 1 mmol/l (DPP IV) was 77 ± 2%. It also gave a remaining at 4 h, 1 mmol/l (DPP IV) of 60 ± 1%, a remaining at 8 h, 1 mmol/l (DPP IV) of 32 ± 4% and a remaining at 24 h, 1 mmol/l (DPP IV) of 0%. For the same compound, the “% Intact peptide remaining after incubations with human plasma” value [1] was 100%, the “effect of DPA on plasma degradation of the peptide” value [1] was “complete abolition of degradation” and the remaining at 2 h, 20 µg/ml [1] was 77 ± 2%. For the same compound, the remaining at 4 h, 20 µg/ml [1] was 60 ± 1%, the remaining at 8 h, 20 µg/ml [1] was 32 ± 4% and the remaining at 24 h, 20 µg/ml ([1]; pH 7.8, 24 h) was 0%. For the same compound, the remaining at 24 h, 20 µg/ml [1, 2] was 63 ± 3% and the “insulin secretion from BRIN-BD11 cells” value (BRIN-BD11 cells) was “strong response”.

— patent US7875587B2, “Peptide analogues of GIP for treatment of diabetes, insulin resistance and obesity” (UUTECH Limited, priority 2004, dated 2011)
